Reference: patent publication EP2792360A1, “(1aR,12bS)-8-cyclohexyl-11-fluoro-N-((1-methylcyclopropyl)sulfonyl)-1a-((3-methyl-3,8-diazabicyclo[3.2.1]oct-8-yl)carbonyl)-1,1a,2,2b-tetrahydrocyclopropa[d]indolo[2,1-a][2]benzazepine-5-carboxamide for use in treating HCV” (IP Gesellschaft für Management mbH, priority 2013, dated 2014)
In brackets after ≈: the same amount, converted by molar mass.

Experiments:
[1] = Hygroscopicity of solid forms of compound of formula (IV) (Ph. Eur. classification); type: physicochemical
Protocol: For the thermogravimetric analyses, approx. 5 - 10 mg of sample were placed in aluminum pans, accurately weighed and hermetically closed with perforation lids. […] The samples were then heated under a flow of nitrogen of about 50 mL/min using a heating rate of 5 K/min. The term "micronization" denotes a process whereby the particle size of a solid material is diminished to a d50 value of less than IOµm by the aid of a suitable method, such as milling, bashing or grinding. […] The term "anti-solvent crystallization" denotes a process wherein supers aturation and as a result thereof crystallisation is achieved by addition of an antisolvent to the product solution. The term "ambient conditions" denotes conditions as experienced in a standard laboratory, e.g. atmospheric pressure, air, ambient temperature between 18 °C and 28 °C, humidity between 30 %rH and 80 %rH. The term "hygroscopicity" describes the ability of a solid material to adsorb moisture. The hygroscopicity of a given API is characterized [European Pharmacopoeia - 6th Edition (2008), Chapter 5.11) by the increase in mass when the relative humidity is raised from 0 %rH to 90 %rH: o non-hygroscopic: weight increase Am < 0.2%; o slightly hygroscopic: weight increase 0.2% < Am < 2.0%; o hygroscopic: weight increase 2.0% < Am < 15.0%; o very hygroscopic: weight increase Am > 15.0%; o deliquescent: sufficient water is adsorbed to form a liquid. The IUPAC lamda convention (W.H. Powell, Pure & Appl. Chem. […] The bonding number "n" of a heteroatom is the sum of the total number of valence bonds to adjacent atoms, if any, and the number of attached hydrogen atoms. The bonding number of a heteroatom is standard when it has the value given in the following table: n=4: C, Si, Ge, Sn, Pb; n=3 B, N, P, As, Sb, Bi, n=2: O, S, Se, Te, Po; n=l; F, CI, Br, I, At. A nonstandard bonding number of a (neutral) heteroatom is indicated by the symbol "λη", where "n" is the bonding number. […]

[2] = Solid form stability of forms of compound of formula (IV) (Temperature / Humidity Controlled XRPD, storage, suspension); type: physicochemical
Protocol: The term"XRPD" denotes the analytical method of X-Ray Powder Diffraction. XRPD patterns were recorded at ambient conditions in transmission geometry with a STOE STADI P diffractometer (Cu K alpha radiation source, primary monochromator, position sensitive detector, angular range 3° to 42° 2Theta, approximately 60 minutes total measurement time). The repeatability of the angular values is in the range of 2Theta ±0.2°. The term "approximately" given in combination with an angular value denotes the repeatability which is in the range of 2Theta ±0.2°. The samples were prepared and analyzed without further processing (e.g. grinding or sieving) of the substance. The relative XRPD peak intensity is dependent upon many factors such as structure factor, temperature factor, crystallinity, polarization factor, multiplicity, and Lorentz factor. Relative intensities may vary considerably from one measurement to another due to preferred orientation effects. Humidity Controlled XRPD analyses were performed in reflection geometry with a Siemens D5000 Diffractometer (Cu radiation source, Ni K beta filter, Scintillation detector, angular range 3° to 42° 2Theta, approximately 180 minutes total measurement time per humidity level). The diffractometer is equipped with an MRI (Materials Research Instruments) humidity chamber. The humidity within the chamber is adjusted with an ANSYCO humidity controller (SYCOS H-HOT). For single crystal structure analysis a single crystal sample was mounted in a nylon loop on a goniometer and measured at ambient conditions. Alternatively, the crystal was cooled in a nitrogen stream during measurement. Data were collected on a GEMINI R Ultra diffractometer from Oxford Diffraction. Cu-radiation of 1.54 A wavelength was used for data collection. Data was processed with the Oxford Diffraction CRYSALIS software. The crystal structure was solved and refined with standard crystallographic software. In this case the program ShelXTL from Bruker AXS (Karlsruhe) was used. The abbreviation "FWHM" denotes the full width at half maximum, which is a width of a peak (e.g. appearing in a spectrum, particularly in an XRPD pattern) at its half height. The term "sharp Bragg diffraction peak" in connection with X-ray diffraction patterns denotes a peak which is observed if Bragg' s law of diffraction is fulfilled. Generally, the FWHM of a sharp Bragg diffraction peak is less than 0.5° 2-theta. The term "amorphous halo" in connection with X-ray diffraction patterns denotes an approximately bell- shaped diffraction maximum in the X-ray powder diffraction pattern of an amorphous material. The FWHM of an amorphous halo is on principle larger than the FWHM of the peak of crystalline material. The terms "FTIR" and "IR" denote the analytical method of infrared spectroscopy. The IR-spectra of the samples are recorded as film of a Nujol suspension consisting of approx. 5 mg of sample and approx. 5 mg of Nujol (mineral oil) between two sodium chloride plates (cross section 13 mm) in transmittance with a FTIR- spectrometer. The spectra were recorded in spectral range between 4000 cm"1 and 600 cm"1, resolution 2 cm"1, and 300 coadded scans on a Magna 860 (thermo/Nicolet) equipped with a DTGS detector. The term "Raman" denotes the analytical method of Raman spectroscopy. For recording Raman spectra, the samples were spread on a glass slide. Raman spectra were recorded in the range of 150-3800 cm"1 with an ARAMIS (HoribaJobinYvon) Raman microscope equipped with a Peltier cooled CCD detector, at excitation of 633 nm, a 1200 1/mm grating, a x50 objective and with 3 exposures of 3s, or 7s for weak Raman scatterers. The term "DSC" denotes the analytical method of Differential Scanning Calorimetry. DSC thermograms were recorded using a Mettler-Toledo™ differential scanning calorimeter DSC820, DSC821 or DSC1 with a FRS05 sensor. […]

[3] = physchem
Protocol: Anal. Chem. Instrum. […] Drug Delivery Rev. […] The binding constant (K) of the gamma-CD inclusion complex ({drug4g}) was calculated from the initial straight line portion of the phase solubility diagram by linear regression, according to the following equation [T. Higuchi et al., Adv. Anal. Chem. Instrum.

[4] = Biopharmaceutical classification system (BCS); type: physicochemical
From the text: The compound of formula (IV), its manufacture, its pharmacological activity as inverse agonists of the GABA A a5 receptor, and its use for the treatment, prevention and/or delay of progression of various central nervous system (CNS) conditions have been described in WO 2009/071476. […] Res. (1995) 12:413-420]. […] If anhydrous solid forms of the compound of formula (IV), as described in WO 2009/071476, are selected for clinical development, a physical instability in terms of hydrate formation during pharmaceutical processing and/or storage of the drug product is possible. […] Further, the discovery of new solid forms of an API (polymorphs, solvates, salts, inclusion complexes) enlarges the repertoire of materials that a formulation scientist has available with which to design a pharmaceutical dosage form of a drug with a targeted release profile or other desired characteristics. Therefore, there is a need to find more solid forms of the compound of formula (IV). […] The instant invention provides novel solid forms of the compound of formula (IV) with improved solubility, dissolution rate, oral bioavailability as well as increased stability of the API. In addition, the instant invention provides novel inclusion complexes of compounds of formula (IV) with cyclodextrins. Such inclusion complexes further feature improved dissolution rate and bioavailability. […]

## Cc1onc(-c2ccc(F)cc2)c1COc1ccc(C(=O)N2CCS(=O)(=O)CC2)cn1.O [Form B ({drug4b}), (1,1-dioxo-1lambda6-thiomorpholin-4-yl)-{6-[3-(4-fluoro-phenyl)-5-methyl-isoxazol-4-ylmethoxy]-pyridin-3-yl]-methanone monohydrate]
[1]
  hygroscopicity: hygroscopic (hygroscopic: weight increase 2.0% < Am < 15.0%)
[2]
  heating temperature at which the form transforms into Form A: > 100 °C
[2]; in the presence of humidity, e.g. at ambient conditions
  stability as compared to Form A: substantially increased

## Cc1onc(-c2ccc(F)cc2)c1COc1ccc(C(=O)N2CCS(=O)(=O)CC2)cn1 [Amorphous Form ({drug4f}), (1,1-dioxo-1lambda6-thiomorpholin-4-yl)-{6-[3-(4-fluoro-phenyl)-5-methyl-isoxazol-4-ylmethoxy]-pyridin-3-yl]-methanone]
[1]
  hygroscopicity: slightly hygroscopic (slightly hygroscopic: weight increase 0.2% < Am < 2.0%)
[2]; Form C: prolonged period, e.g. 30 days
  phase change upon storage at 100 rH at ambient temperature: no phase transformation has been observed

## OC[C@H]1O[C@@H]2O[C@H]3[C@H](O)[C@@H](O)[C@@H](O[C@H]4[C@H](O)[C@@H](O)[C@@H](O[C@H]5[C@H](O)[C@@H](O)[C@@H](O[C@H]6[C@H](O)[C@@H](O)[C@@H](O[C@H]7[C@H](O)[C@@H](O)[C@@H](O[C@H]8[C@H](O)[C@@H](O)[C@@H](O[C@H]9[C@H](O)[C@@H](O)[C@@H](O[C@H]1[C@H](O)[C@H]2O)O[C@@H]9CO)O[C@@H]8CO)O[C@@H]7CO)O[C@@H]6CO)O[C@@H]5CO)O[C@@H]4CO)O[C@@H]3CO [gamma-cyclodextrin]
[3]; water
  solubility: 150 mM (≈ 195 mg/mL)

## Cc1onc(-c2ccc(F)cc2)c1COc1ccc(C(=O)N2CCS(=O)(=O)CC2)cn1 [compound of formula (IV), (1,1-dioxo-1lambda6-thiomorpholin-4-yl)-{6-[3-(4-fluoro-phenyl)-5-methyl-isoxazol-4-ylmethoxy]-pyridin-3-yl]-methanone]
[4]
  aqueous solubility: low aqueous solubility
  biopharmaceutical classification: BCS 2
[3]
  type of phase solubility diagram with gamma-cyclodextrin: Bs-type behavior
